The text below walks through data of ChEMBL document CHEMBL1201862, “PubChem BioAssay data set” (2004).

Among the test systems are OVCAR-5; HCT-116; IGROV-1; U-251; COLO 205; MDA-N; HT-29; SR; M14; MDA-MB-435; HOP-62; Malme-3M; KM12; A498; 786-0; LOX IMVI; CAKI-1; HL-60; RPMI-8226; SK-MEL-5.
Common to all, as to assay: NCI anticancer screen, dose series, 48 h

Molecules are shown by their SMILES.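 Each compound was tested at five concentrations against cells in 96-well plates for 48 hours. GI50: concentration for 50% inhibition of growth.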 The source made the active and inactive calls. No stated cut-off is given here; in the data, active = GI50 up to about 1.1 µM and inactive = higher.

Regarding `C[C@H](CCC(=O)O)[C@H]1CC[C@H]2[C@@H]3[C@@H](O)C[C@@H]4C[C@H](O)CC[C@]4(C)[C@H]3CC[C@]12C`, the GI50 is > 100 µM (inactive) with OVCAR-5; 61.7 µM (inactive) in the assay on HCT-116; > 100 µM (inactive) in the assay with IGROV-1; 58.6 µM (inactive) with U-251; > 100 µM (inactive) in the assay with COLO 205; > 100 µM (inactive) in the assay with MDA-N. Also, the GI50 was > 100 µM (inactive) with HT-29; 47.8 µM (inactive) with SR; 95.3 µM (inactive) in the assay on M14; > 100 µM (inactive) in the assay on MDA-MB-435; > 100 µM (inactive) in the assay with HOP-62; > 100 µM (inactive) in the assay on Malme-3M. The GI50 in the assay with KM12 was 60 µM (inactive); in the assay on A498, > 100 µM (inactive); with 786-0 it was > 100 µM (inactive); in the assay with LOX IMVI, > 100 µM (inactive); in the assay on CAKI-1, > 100 µM (inactive); in the assay with HL-60, 63.5 µM (inactive). Further, the GI50 in the assay with RPMI-8226 is 38.1 µM (inactive); in the assay with SK-MEL-5, 62.1 µM (inactive).
Consider `CCCC#CCOC(=O)c1cc([N+](=O)[O-])cc([N+](=O)[O-])c1`, for which the GI50 in the assay on OVCAR-5 is > 100 µM (inactive); with HCT-116 it was > 100 µM (inactive); in the assay with IGROV-1, > 100 µM (inactive); with U-251 it was > 100 µM (inactive); in the assay on COLO 205, > 100 µM (inactive); in the assay with MDA-N, 47.3 µM (inactive). For the same compound, the GI50 in the assay on HT-29 was > 100 µM (inactive); in the assay with SR it was > 100 µM (inactive); with M14, > 100 µM (inactive); in the assay with MDA-MB-435, 41.4 µM (inactive); in the assay on HOP-62 it was > 100 µM (inactive); with Malme-3M, 19.9 µM (inactive). Also, the GI50 in the assay on KM12, in the assay on A498, in the assay with 786-0, in the assay on LOX IMVI, in the assay on CAKI-1 and in the assay with HL-60 was > 100 µM (inactive) throughout. Also, the GI50 in the assay on RPMI-8226 is > 100 µM (inactive); with SK-MEL-5, 52 µM (inactive).
In the case of `COc1ccc(/C=C2\CCCc3ccccc3C2=O)cc1`, the GI50 with OVCAR-5 was 0.605 µM (active); in the assay with HCT-116, 0.244 µM (active); in the assay with IGROV-1, 0.0573 µM (active); with U-251, 0.508 µM (active); in the assay on COLO 205, 0.0904 µM (active); with MDA-N, 0.0132 µM (active). Further, the GI50 was 0.0849 µM (active) in the assay with HT-29; 0.452 µM (active) in the assay on SR; 0.0335 µM (active) with M14; 0.0154 µM (active) in the assay with MDA-MB-435; 0.187 µM (active) in the assay with HOP-62; 0.0174 µM (active) with Malme-3M. Moreover, the GI50 was 0.158 µM (active) with KM12; 0.104 µM (active) in the assay on A498; 0.0561 µM (active) in the assay on 786-0; 0.179 µM (active) in the assay on LOX IMVI; 2.82 µM (inactive) in the assay on CAKI-1; 0.279 µM (active) with HL-60. Moreover, the GI50 in the assay with RPMI-8226 is 0.411 µM (active); with SK-MEL-5, 0.102 µM (active).
For the compound `Cc1cccc2c1C(=O)[C@](C)([C@]1(C)Nc3cccc(C)c3C1=O)N2`, the GI50 was 24.3 µM (inactive) in the assay with OVCAR-5; 56.6 µM (inactive) in the assay on HCT-116; 33.5 µM (inactive) with IGROV-1; 60.3 µM (inactive) in the assay with U-251; 19.7 µM (inactive) in the assay with COLO 205; 25 µM (inactive) in the assay with MDA-N. Also, the GI50 is 29.1 µM (inactive) in the assay with HT-29; 17.7 µM (inactive) with SR; 33.9 µM (inactive) in the assay on M14; 15.7 µM (inactive) with MDA-MB-435; 23.3 µM (inactive) in the assay with HOP-62; 36.3 µM (inactive) with Malme-3M. For the same compound, the GI50 with KM12 is 35.6 µM (inactive); with A498, 60.5 µM (inactive); with 786-0, 39.4 µM (inactive); in the assay with LOX IMVI it was 29.3 µM (inactive); with CAKI-1, 27.4 µM (inactive); with HL-60, < 0.01 µM (active). The GI50 in the assay on RPMI-8226 was 10.8 µM (inactive); in the assay with SK-MEL-5, 29.4 µM (inactive).
